From patent US11077090B2, “Compounds and compositions and uses thereof” (Sunovion Pharmaceuticals Inc., priority 2016, dated 2021)
Where two headings read alike, the source gives them in different places.

System: compound-treated mice
Test: Neuropharmacological assay (SmartCube): behavioral activity signature and minimal effective dose
Format: in vivo
Conditions: for minimal effective dose: Mus musculus, ip, MED = dose having 50% or more total activity; for AD: ADHD (probability of activity signature) / AG: analgesic (probability of activity signature) / AX: anxiolytic (probability of activity signature) / CE: cognitive enhancer (probability of activity signature) / DP: anti-depressant (probability of activity signature) / MS: mood stabilizer (probability of activity signature) / PS: anti-psychotic (probability of activity signature) / SD: sedative hypnotic (probability of activity signature) / UN: uncharacterized CNS activity (probability of activity signature): i.p. 15 min before test, most efficacious dose(s)
Summary of the method: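 Mice dosed i.p. 15 min before test, compound in N-methyl-2-pyrrolidone/PEG/propylene glycol, 3 doses; video-captured behavior matched to reference-drug signatures, giving per-class probabilities at most efficacious dose. MED from doses typically 0.3–30 mpk, defined as lowest dose with ≥50% total activity.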

[1] = read-out: Potency: minimal effective dose (MED)
[2] = read-out: Potency: minimal effective dose (MED), binned

| Compound | minimal effective dose [1] | AD: ADHD (probability of activity signature) | AG: analgesic (probability of activity signature) | AX: anxiolytic (probability of activity signature) | CE: cognitive enhancer (probability of activity signature) | DP: anti-depressant (probability of activity signature) | MS: mood stabilizer (probability of activity signature) | PS: anti-psychotic (probability of activity signature) | SD: sedative hypnotic (probability of activity signature) | UN: uncharacterized CNS activity (probability of activity signature) | minimal effective dose [2] |
| --- | --- | --- | --- | --- | --- | --- | --- | --- | --- | --- | --- |
| COc1ccc2c(c1)[C@@H](N)COC2 (single isomer, unassigned) [Example 122] | < 3 mg/kg | + (LOQ ≤ + <5%) | ++ (5% ≤ ++ <25%) | +++ (25% ≤ +++ <50%) | +++ (25% ≤ +++ <50%) | ++ (5% ≤ ++ <25%) | + (LOQ ≤ + <5%) | ++ (5% ≤ ++ <25%) | ++ (5% ≤ ++ <25%) | +++ (25% ≤ +++ <50%) |  |
| CC[C@@H]1OCc2ccccc2[C@@H]1N (single isomer, unassigned) [Example 191] |  | + (LOQ ≤ + <5%) | ++ (5% ≤ ++ <25%) | ++ (5% ≤ ++ <25%) | ++ (5% ≤ ++ <25%) | ++ (5% ≤ ++ <25%) | + (LOQ ≤ + <5%) | ++ (5% ≤ ++ <25%) | ++ (5% ≤ ++ <25%) | ++++ (50% ≤ ++++) | < 3 mg/kg |
| CCc1ccc2c(c1)C(N)COC2.Cl (stereo not drawn) [Example 20, 6-Ethylisochroman-4-amine hydrochloride] | 3 to 10 mg/kg | + (LOQ ≤ + <5%) | ++ (5% ≤ ++ <25%) | +++ (25% ≤ +++ <50%) | ++ (5% ≤ ++ <25%) | ++ (5% ≤ ++ <25%) | + (LOQ ≤ + <5%) | +++ (25% ≤ +++ <50%) | ++ (5% ≤ ++ <25%) | ++ (5% ≤ ++ <25%) |  |
| C[C@@H]1OCc2ccccc2[C@H]1N.Cl (relative stereo) [Example 73, trans-3-methylisochroman-4-amine hydrochloride] | < 3 mg/kg | + (LOQ ≤ + <5%) | ++ (5% ≤ ++ <25%) | +++ (25% ≤ +++ <50%) | ++ (5% ≤ ++ <25%) | ++ (5% ≤ ++ <25%) | + (LOQ ≤ + <5%) | ++ (5% ≤ ++ <25%) | + (LOQ ≤ + <5%) | +++ (25% ≤ +++ <50%) |  |
| COc1cccc2c1CO[C@@H](C)[C@H]2N.Cl [Example 234] |  | + (LOQ ≤ + <5%) | ++ (5% ≤ ++ <25%) | +++ (25% ≤ +++ <50%) | ++ (5% ≤ ++ <25%) | + (LOQ ≤ + <5%) | + (LOQ ≤ + <5%) | ++ (5% ≤ ++ <25%) | ++ (5% ≤ ++ <25%) | ++ (5% ≤ ++ <25%) | 10 to 30 mg/kg |
| Cc1ccc2c(c1)[C@H](N)[C@H](C)COC2.Cl (relative stereo) [Example 74, cis-4,7-dimethyl-1,3,4,5-tetrahydrobenzo [c]oxepin-5-amine hydrochloride] | 10 to 30 mg/kg | + (LOQ ≤ + <5%) | ++ (5% ≤ ++ <25%) | ++ (5% ≤ ++ <25%) | + (LOQ ≤ + <5%) | ++ (5% ≤ ++ <25%) | + (LOQ ≤ + <5%) | + (LOQ ≤ + <5%) | + (LOQ ≤ + <5%) | +++ (25% ≤ +++ <50%) |  |
| CC1(C)OCC(N)c2ccccc21.Cl (stereo not drawn) [Example 29] | 10 to 30 mg/kg | + (LOQ ≤ + <5%) | +++ (25% ≤ +++ <50%) | ++ (5% ≤ ++ <25%) | + (LOQ ≤ + <5%) | ++ (5% ≤ ++ <25%) | + (LOQ ≤ + <5%) | + (LOQ ≤ + <5%) | + (LOQ ≤ + <5%) | + (LOQ ≤ + <5%) |  |
| CCN(C)C(=O)Oc1ccc2c(c1)C(N)COC2.Cl (stereo not drawn) [Example 277, 4-Aminoisochroman-6-yl ethyl(methyl)carbamate hydrochloride] |  | + (LOQ ≤ + <5%) | + (LOQ ≤ + <5%) | + (LOQ ≤ + <5%) | + (LOQ ≤ + <5%) | + (LOQ ≤ + <5%) | + (LOQ ≤ + <5%) | + (LOQ ≤ + <5%) | + (LOQ ≤ + <5%) | + (LOQ ≤ + <5%) | > 30 mg/kg |
| Cc1ccc2c(c1)[C@H](N)[C@H](C(C)C)OC2 [Example 211] |  | + (LOQ ≤ + <5%) | + (LOQ ≤ + <5%) | ++ (5% ≤ ++ <25%) | + (LOQ ≤ + <5%) | ++ (5% ≤ ++ <25%) | + (LOQ ≤ + <5%) | ++ (5% ≤ ++ <25%) | +++ (25% ≤ +++ <50%) | ++++ (50% ≤ ++++) | 3 to 10 mg/kg |
